Where “and” joins values, the source holds several entries; their conditions need not be identical. Equal values may be shown once. Read-outs that look alike come from different tables or passages of the source.
Key:
Assay type in all cases: cell-based
[1] = test system: Calu-1 cells stably expressing Halo–p53-R273H (FL)–mCherry versus parental Calu-1 cells; test: flow-cytometry growth competition; conditions: sheet S2E
Protocol: (§1) Cells with and without a fluorescent marker (for example, Halo–p53–mCherry) were mixed and the resulting solution was plated in six-well plates or 10-cm dishes at low density; compound was added at varying concentrations. After reaching confluence, cells were passaged and retreated with compound if needed. Otherwise, cells were trypsinized, washed and resuspended in complete growth medium in 96-well plates or tubes for flow cytometry. Untreated cell mixtures were used to establish gates separating the fluorophore^+/− populations. Analysis was conducted on a CytoFLEX LX flow cytometer.

[2] = test system: Halo–p53-Y220C ΔTAD–mCherry 293T cells versus parental 293T cells; test: flow-cytometry growth competition; conditions: for normalized_mCherry_percentage: Y220C, day 8, normalized to DMSO
Protocol: as §1

[3] = test system: MFE319 cells stably expressing sgTP53–Cas9–EGFP versus parental MFE319 cells; test: flow-cytometry growth competition
Protocol: as §1

[4] = test system: Halo–p53-Y220C ΔTAD–mCherry 293T cells; test: annexin–PI staining; conditions: for P3_avg (P3 = early apoptotic) / P5_avg (P5 = late apoptotic): Cell_Line Y220C, proportion of cells; for avgprop_P3 / avgprop_P4 / avgprop_P5 / avgprop_P2 / P2_viable / P3_AnnexinPos_PIneg / P4_PIpos_AnnexinNeg / P5_PIpos_Annexinpos / prop_P3 / prop_P4 / prop_P5 / prop_P2: Y220C; for avgprop_P3: average proportion AnnexinPos PIneg; for avgprop_P4: average proportion PIpos AnnexinNeg; for avgprop_P5: average proportion PIpos Annexinpos; for avgprop_P2: average proportion viable; for P2_viable / P3_AnnexinPos_PIneg / P4_PIpos_AnnexinNeg / P5_PIpos_Annexinpos: event count; for P2_viable / P3_AnnexinPos_PIneg / P4_PIpos_AnnexinNeg / P5_PIpos_Annexinpos / prop_P3 / prop_P4 / prop_P5 / prop_P2: single replicate; for prop_P3: proportion AnnexinPos PIneg; for prop_P4: proportion PIpos AnnexinNeg; for prop_P5: proportion PIpos Annexinpos; for prop_P2: proportion viable
Protocol: Cells were plated in six-well plates and treated with varying concentrations of compounds for 1 day. Cells were stained with annexin V–AF488 and PI following the manufacturer’s instructions (Thermo Fisher, V13241) and analyzed by flow cytometry (Beckman CytoFLEX LX), using untreated cells to establish gates.

[5] = test system: p53 luciferase transcriptional reporter in Huh7 cells; test: p53 luciferase reporter assay; conditions: for p53 luciferase reporter signal (normalized), replicates: Huh7
Protocol: (§2) Huh7 and MFE319 cell lines stably expressing a p53 reporter (Addgene, 90363)[59] were generated. Cells were plated in 384-well plates (1,500 cells per well) and treated with varying concentrations of compound. Then, 16 h after treatment, firefly luciferase substrate was added to the cells and luminescence was monitored using an EnVision 2105 multimode plate reader.

[6] = test system: p53 luciferase transcriptional reporter in MFE319 cells; test: p53 luciferase reporter assay; conditions: for p53 luciferase reporter signal (normalized), replicates: MFE319
Protocol: as §2

[7] = viability with doxycycline-inducible construct; conditions: human, read-out: mean_norm (normalized viability)
Protocol: (§3) Cells were plated in 384-well plates (typically 1,500 cells per well) with varying concentrations of compounds, with a total volume of 50 μl per well. CTG reagent was added (25 μl) to the solutions, mixed and read out using an EnVision 2105 multimode plate reader.

[8] = test system: 293T cells expressing a dox inducible Halo–p53-Y220C ΔTAD–mCherry; test: viability with doxycycline-inducible construct
Protocol: as §3

SMILES: CC[C@@H]1C(=O)N(C)c2cnc(Nc3ccc(C(=O)NC4CCN(C)CC4)cc3OC)nc2N1C1CCCC1 [BI2536]
- mCherry_percent ([1]; 0.1 nM): 80.66%
- mCherry_percent ([1]; 1 nM): 80.59%
- mCherry_percent ([1]; 10 nM): 80.93%
- activity / difference in cell survival in competition ([2]; 8-day competition): did not observe any activity
- normalized_mCherry_percentage ([2]; 0.02 nM): 98.51%
- normalized_mCherry_percentage ([2]; 0.2 nM): 98.69%
- normalized_mCherry_percentage ([2]; 1 nM): 100.1%
- normalized_mCherry_percentage ([2]; 5 nM): 117.7%
- merge_avg (growth competition, sheet 4H) ([3]; Concentration (pM) 19.5312): 0.9382
- merge_avg (growth competition, sheet 4H) ([3]; Concentration (pM) 78.125): 0.9005
- merge_avg (growth competition, sheet 4H) ([3]; Concentration (pM) 312.5): 0.9194
- merge_avg (growth competition, sheet 4H) ([3]; Concentration (pM) 1250): 0.8118
- enrichment of EGFP^+ (TP53-knockout) population ([3]; day 9, p53-01 at doses between 800 nM and 1.25 μM): no such activity
- P3_avg (P3 = early apoptotic) ([4]; Concentration 0.75): 0.03538
- P5_avg (P5 = late apoptotic) ([4]; Concentration 0.75): 0.001761
- P3_avg (P3 = early apoptotic) ([4]; Concentration 1.5): 0.08725
- P5_avg (P5 = late apoptotic) ([4]; Concentration 1.5): 0.03439
- avgprop_P3 ([4]; Concentration 0.75): 0.03538
- avgprop_P4 ([4]; Concentration 0.75): 0.005431
- avgprop_P5 ([4]; Concentration 0.75): 0.001761
- avgprop_P2 ([4]; Concentration 0.75): 0.9574
- P2_viable ([4]; Concentration 0.75): 2186 and 2152 and 2185
- P3_AnnexinPos_PIneg ([4]; Concentration 0.75): 74 and 98 and 69
- P4_PIpos_AnnexinNeg ([4]; Concentration 0.75): 7 and 17 and 13
- P5_PIpos_Annexinpos ([4]; Concentration 0.75): 5 and 3 and 4
- prop_P3 ([4]; Concentration 0.75): 0.03257 and 0.04317 and 0.03038
- prop_P4 ([4]; Concentration 0.75): 0.003081 and 0.007489 and 0.005724
- prop_P5 ([4]; Concentration 0.75): 0.002201 and 0.001322 and 0.001761
- prop_P2 ([4]; Concentration 0.75): 0.9621 (2×) and 0.948
- avgprop_P3 ([4]; Concentration 1.5): 0.08725
- avgprop_P4 ([4]; Concentration 1.5): 0.1027
- avgprop_P5 ([4]; Concentration 1.5): 0.03439
- avgprop_P2 ([4]; Concentration 1.5): 0.7757
- P2_viable ([4]; Concentration 1.5): 1282 and 1336 and 510
- P3_AnnexinPos_PIneg ([4]; Concentration 1.5): 163 and 159 and 47
- P4_PIpos_AnnexinNeg ([4]; Concentration 1.5): 201 and 160 and 62
- P5_PIpos_Annexinpos ([4]; Concentration 1.5): 59 and 56 and 23
- prop_P3 ([4]; Concentration 1.5): 0.0956 and 0.09293 and 0.07321
- prop_P4 ([4]; Concentration 1.5): 0.1179 and 0.09351 and 0.09657
- prop_P5 ([4]; Concentration 1.5): 0.0346 and 0.03273 and 0.03583
- prop_P2 ([4]; Concentration 1.5): 0.7519 and 0.7808 and 0.7944
- induction of p53 reporter ([5]; 16 h, PMV6 at doses of 1.25–10 μM): no such effect
- p53 luciferase reporter signal (normalized), replicates ([5]; log Concentration (pM) 1.68867): 1.071 and 1.082 and 0.9754
- p53 luciferase reporter signal (normalized), replicates ([5]; log Concentration (pM) 1.9897): 0.9944 and 0.9877 and 0.9088
- p53 luciferase reporter signal (normalized), replicates ([5]; log Concentration (pM) 2.29073): 0.9631 and 0.9698 and 0.9782
- p53 luciferase reporter signal (normalized), replicates ([5]; log Concentration (pM) 2.59176): 1.0179 and 0.8887 and 0.8977
- p53 luciferase reporter signal (normalized), replicates ([5]; log Concentration (pM) 2.89279): 1.088 and 0.9771 and 0.9776
- p53 luciferase reporter signal (normalized), replicates ([5]; log Concentration (pM) 3.19382): 1.04 and 1.0179 and 1.023
- p53 luciferase reporter signal (normalized), replicates ([5]; log Concentration (pM) 3.49485): 0.8529 and 0.9603 and 1.044
- p53 luciferase reporter signal (normalized), replicates ([5]; log Concentration (pM) 3.79588): 0.8775 and 0.9273 and 0.8786
- p53 luciferase reporter signal (normalized), replicates ([5]; log Concentration (pM) 4.09691): 0.9161 and 0.9032 and 0.92
- p53 luciferase reporter signal (normalized), replicates ([5]; log Concentration (pM) 4.39794): 0.8747 and 0.91 and 0.9648
- p53 luciferase reporter signal (normalized), replicates ([5]; log Concentration (pM) 4.69897): 0.9245 and 0.9167 and 0.9228
- p53 luciferase reporter signal (normalized), replicates ([5]; log Concentration (pM) 5): 0.7964 and 0.863 and 0.8635
- induction of p53 reporter ([6]; 16 h): no induction of luciferase activity
- p53 luciferase reporter signal (normalized), replicates ([6]; log Concentration (pM) 1.68867): 0.8432 and 0.8795 and 0.997
- p53 luciferase reporter signal (normalized), replicates ([6]; log Concentration (pM) 1.9897): 1.008 and 0.9306 and 1.09
- p53 luciferase reporter signal (normalized), replicates ([6]; log Concentration (pM) 2.29073): 0.7831 and 0.9939 and 0.826
- p53 luciferase reporter signal (normalized), replicates ([6]; log Concentration (pM) 2.59176): 1.029 and 1.032 and 0.9459
- p53 luciferase reporter signal (normalized), replicates ([6]; log Concentration (pM) 2.89279): 0.8553 and 0.942 and 1.018
- p53 luciferase reporter signal (normalized), replicates ([6]; log Concentration (pM) 3.19382): 0.956 and 0.9365 and 0.9572
- p53 luciferase reporter signal (normalized), replicates ([6]; log Concentration (pM) 3.49485): 0.8748 and 0.9709 and 0.8007
- p53 luciferase reporter signal (normalized), replicates ([6]; log Concentration (pM) 3.79588): 0.8943 and 0.9669 and 0.8623
- p53 luciferase reporter signal (normalized), replicates ([6]; log Concentration (pM) 4.09691): 0.6004 and 0.8065 and 0.6757
- p53 luciferase reporter signal (normalized), replicates ([6]; log Concentration (pM) 4.39794): 0.6617 and 0.6465 and 0.5696
- p53 luciferase reporter signal (normalized), replicates ([6]; log Concentration (pM) 4.69897): 0.5274 and 0.6902 and 0.6941
- p53 luciferase reporter signal (normalized), replicates ([6]; log Concentration (pM) 5): 0.7269 and 0.634 and 0.6632
- viability ([7]; dox 100, Concentration 0.0390625): 99%
- viability ([7]; dox 100, Concentration 0.078125): 86.5%
- viability ([7]; dox 100, Concentration 0.15625): 88.6%
- viability ([7]; dox 1000, Concentration 0.0390625): 97.3%
- viability ([7]; dox 1000, Concentration 0.078125): 89.3%
- viability ([7]; dox 1000, Concentration 0.15625): 88.7%
- viability ([7]; dox 1000, Concentration 0.3125): 83%
- viability ([7]; dox 1000, Concentration 0.625): 74.2%
- viability ([7]; dox 1000, Concentration 1.25): 48.7%
- viability ([7]; dox 1000, Concentration 2.5): 18.6%
- viability ([7]; dox 1000, Concentration 5): 14.5%
- viability ([7]; dox 1000, Concentration 10): 10.7%
- change of potency upon doxycycline induction ([8]; dox 0, 100, 1000 ng/mL, 4 days): without impacting the potency
- mean_norm (normalized viability) ([8]; dox 0, Concentration 0.0390625): 0.9266
- mean_norm (normalized viability) ([8]; dox 0, Concentration 0.078125): 0.8991
- mean_norm (normalized viability) ([8]; dox 0, Concentration 0.15625): 0.8734
- mean_norm (normalized viability) ([8]; dox 0, Concentration 0.3125): 0.835
- mean_norm (normalized viability) ([8]; dox 0, Concentration 0.625): 0.7837
- mean_norm (normalized viability) ([8]; dox 0, Concentration 1.25): 0.5152
- mean_norm (normalized viability) ([8]; dox 0, Concentration 2.5): 0.218
- mean_norm (normalized viability) ([8]; dox 0, Concentration 5): 0.1689
- mean_norm (normalized viability) ([8]; dox 0, Concentration 10): 0.1644
- mean_norm (normalized viability) ([8]; dox 100, Concentration 0.3125): 0.8537
- mean_norm (normalized viability) ([8]; dox 100, Concentration 0.625): 0.6735
- mean_norm (normalized viability) ([8]; dox 100, Concentration 1.25): 0.3823
- mean_norm (normalized viability) ([8]; dox 100, Concentration 2.5): 0.2022
- mean_norm (normalized viability) ([8]; dox 100, Concentration 5): 0.161
- mean_norm (normalized viability) ([8]; dox 100, Concentration 10): 0.1435

From PMC13128454, “Mutant p53 protein accumulation is selectively targetable by proximity-inducing drugs” (Nature Chemical Biology, 2025)
